Results from paper PMC11992225, “Antibacterial compounds against non-growing and intracellular bacteria” (npj Antimicrobials and Resistance, 2025).
≈ marks a conversion by molar mass, not a printed value. Where two headings read alike, the source gives them in different places.

What was measured:
S. flexneri 5a M90T = test: MIC in tryptic soy broth, S. flexneri; assay type: cell-based, Shigella flexneri; conditions: Shigella flexneri, 5AM90T, read-out: MIC (μM) TSB
Procedure: (§1) Minimal inhibitory concentrations (MICs) were determined using a standard microdilution assay protocol. CA-MHB medium buffered with 40 mM HEPES (pH 7.4) was used to determine the MICs for UPEC, P. aeruginosa, and S. aureus. […] MICs for UPEC were also determined in LPM buffered with 30 mM MES (pH 5.5). For S. flexneri, MICs were determined in tryptic soy broth (TSB). The assay was performed in triplicates.

E. coli CFT073 (UPEC) = test: MIC, standard microdilution assay, growing UPEC; assay type: cell-based, Escherichia coli; conditions: E. coli; for MIC (μM) CA-MHB +PAβN: CA-MHB with 10 μg/ml efflux pump inhibitor PaβN
Procedure: as §1

[1] = test system: non-growing S. aureus DSM2569; test: Dose-dependent killing analysis (CFU spot-plating) of stationary-phase S. aureus;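 note: drug concentration in µM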; assay type: cell-based, Staphylococcus aureus; conditions: S. aureus, vs 9,097 before treatment
Procedure: To determine the spectrum of activity of the compounds that were effective against non-growing UPEC, we further assessed their efficacy against the well-characterized Gram-negative and Gram-positive reference strains P. aeruginosa DSM1117 and S. aureus DSM2569, respectively. The cultures were grown and treated for 24 h in 1:4 CA-MHB (pH 7.4). […].
For survival analysis, bacteria were cultivated as described for the dose–response dilution-regrowth assay. Assays with UPEC were conducted at the CBCS screening facility using 96-well plates with a 200 μl sample volume, and compounds were dispensed using the Echo® (Labcyte) system. P. aeruginosa and S. aureus samples were treated according to the protocol used for the dilution-regrowth experiments. Treated samples were serially diluted 10-fold in PBS, and 10 μl drops were spot-plated onto rectangular LB agar plates using either a Beckman NXP robot (for UPEC) or an Integra VIAFLO96 electronic pipette (for P. aeruginosa and S. aureus). The LB agar plates were incubated overnight at 37 °C and scanned. Colonies were counted at the spots of the lowest dilution where individual colonies could be accurately distinguished. Each colony was manually marked on a separate image layer using the GNU Image Manipulation Program, and counted using NIST’s Integrated Colony Enumerator (NICE 1.4) software. The experiments were performed in three biological replicates.

[2] = test system: intracellular S. flexneri 5a M90T in TC7 cells; test: microbe, parasite or virus in culture; assay type: cell-based, Shigella flexneri; conditions: for IC50: Shigella flexneri, TC7, 14 h; for Fluorescence intensity (RFU), Mean, 0.0625 x MIC / Fluorescence intensity (RFU), Mean, 0.125 x MIC / Fluorescence intensity (RFU), Mean, 0.25 x MIC / Fluorescence intensity (RFU), Mean, 0.5 x MIC / Fluorescence intensity (RFU), Mean, 2 x MIC / Fluorescence intensity (RFU), Mean, MIC: TC7 cells infected with GFP-expressing S. flexneri, 14 h treatment
Source text: Nonproliferating bacterial pathogens frequently inhabit intracellular environments, but establishing relevant infection models for high-throughput testing is challenging. Therefore, we firstly tested ability of the hit compounds to cross the eukaryotic cytoplasmic membrane barrier and inhibit growth of S. flexneri within the cytoplasm of the TC7 human colon adenocarcinoma cell line[59]. To this end, we developed a new, fluorescence-based method that enables real-time monitoring of growth of intracellular Shigella. We used S. flexneri 5a M90T strain producing the AfaE adhesin that enhances bacterial adhesion to epithelial cells and allows synchronization of invasion. The strain was further modified to constitutively express super-folder GFP (sfGFP), which enables monitoring bacterial growth by fluorescence measurement. The epithelial cells were grown to confluence and infected with bacteria at an MOI (multiplicity of infection) of 50. […] Following bacterial adhesion and invasion, the cells were incubated with varying concentrations of the hit compounds and intracellular bacterial growth was tracked by measuring green fluorescence.
The cells were split using trypsin, seeded in 96-well plates for infection, and grown to confluence, corresponding to approximately 40,000 cells per well.
A single colony of S. flexneri was inoculated into TSB supplemented with 50 μg/ml spectinomycin and incubated overnight at 37°C with agitation. The overnight culture was diluted 1:200 in fresh TSB, and the bacteria were grown at 37 °C until the OD600 reached 0.3–0.4, corresponding to approximately 2 × 10^7 CFU/ml. Bacteria were pelleted by centrifugation, washed twice with sterile PBS, and resuspended in infection solution (serum-free DMEM supplemented with 20 mM HEPES, pH 7.4). Just prior to infection, the medium was withdrawn, and the cells were washed twice with sterile PBS. The bacterial inoculum (MOI 50, 2 × 10^7 CFU/ml) was added to all wells except the no-infection control. The plates were incubated at room temperature for 15 min to allow bacterial adhesion, followed by a 1 h incubation at 37 °C with 5% CO2 to facilitate bacterial invasion.
Twofold serial dilutions of the drugs were prepared in infection solution containing 50 μg/ml gentamicin in a 96-well plate. After the invasion period, the bacterial inoculum was removed, and the serial dilutions of the drugs were added to the wells, except for the no-drug control. […] […] The experiments were performed in triplicates on separate days.
(§2) Statistical significance of the drug effects was assessed using a one-way ANOVA followed by Dunnett’s test, comparing each treatment to the drug-free control. Statistical significance of the differences in chemical characteristics between the hit compounds and the Prestwick library was assessed using a Mann–Whitney test. Statistical significance was set at P ≤ 0.05. A five-parameter logistic equation was used for asymmetric sigmoidal curve fitting and for EC50 and IC50 determination. The Venn diagram in Fig. 1F was prepared using BioVenn web application. Characteristics of the chemical and physical properties of Prestwick library compounds were obtained from Supplementary Table S1 from reference. Characteristics of the hit compounds not included in the Prestwick library were retrieved from the PubChem database.

P. aeruginosa DSM1117 = test: MIC, standard microdilution assay, growing P. aeruginosa; assay type: cell-based, Pseudomonas aeruginosa; conditions: Pseudomonas aeruginosa, DSM1117; P. aeruginosa; CA-MHB pH 7.4; read-out: MIC (μM) CA-MHB
Procedure: as §1

S. aureus DSM2569 = test: MIC, standard microdilution assay, growing S. aureus; assay type: cell-based, Staphylococcus aureus; conditions: Staphylococcus aureus, DSM2569; S. aureus; CA-MHB pH 7.4; read-out: MIC (μM) CA-MHB
Procedure: as §1

non-growing UPEC CFT073 = test: Dilution-regrowth assay (screen, hit validation, dose-response) on stationary-phase UPEC; assay type: cell-based, Escherichia coli; conditions: at 0.5 µM
Procedure: The cultures were incubated for 24 h in non-baffled Erlenmeyer flasks at 37 °C with shaking at 200 rpm.
The high-throughput screening (HTS) procedure was based on the protocol by Hazan and colleagues[15] and conducted at the Chemical Biology Consortium Sweden (CBCS) screening facility. […] Each plate included eight wells with 200 nl of 10 mM gatifloxacin, finafloxacin, and kanamycin solutions, along with 8-wells containing 200 nl of DMSO as controls. After 24 h incubation,100 μl of the culture was dispensed into each well of the 384-well plates for screening at a final concentration of 20 μM. The plates were sealed with parafilm and incubated at 37 °C for 24 h in closed humidified boxes, with wet paper towels added to prevent evaporation. […] The plates were incubated at 37 °C for 6 h in humidified boxes, then OD600 was measured using a microplate reader.
For hit validation, bacteria were cultivated, and the dilution-regrowth assay was conducted following the same protocol used in the primary screen. Hit compounds were dispensed into 384-well plates using the Echo® (Labcyte) system, with 200, 100, or 50 nl of a 10 mM solution in DMSO added per well, yielding final screening concentrations of 20, 10, and 5 μM, respectively. OD600 values of regrowing samples were normalized to the mean OD600 of the drug-free control. The testing was conducted in two replicates.
For UPEC, dose–response analysis was conducted at the CBCS screening facility. Bacteria were cultivated, and the dilution-regrowth assay was performed according to the HTS protocol. Compounds were dispensed into 384-well plates using the Echo® (Labcyte) system, and regrowth was assessed by measuring OD600 after 6 h of incubation at 37 °C in humidified boxes. Three biological replicates were performed.
as §2

[3] = Escherichia coli, pH 7.4, 1:4 diluted CA-MHB, read-out: MIC (μM) 1:4 CA-MHB
[4] = Escherichia coli, pH 7.4, CA-MHB, read-out: MIC (μM) CA-MHB

SMILES	MIC (S. flexneri 5a M90T) [µM]	MIC (μM) CA-MHB +PAβN (E. coli CFT073 (UPEC); pH 7.4) [µM]	MIC (E. coli CFT073 (UPEC); [3]) [µM]	MIC (E. coli CFT073 (UPEC); [4]) [µM]	IC50 [2] [µM]	Fluorescence intensity (RFU), Mean, 0.0625 x MIC [2] [RFU]	Fluorescence intensity (RFU), Mean, 0.125 x MIC [2] [RFU]	Fluorescence intensity (RFU), Mean, 0.25 x MIC [2] [RFU]	Fluorescence intensity (RFU), Mean, 0.5 x MIC [2] [RFU]	Fluorescence intensity (RFU), Mean, 2 x MIC [2] [RFU]	Fluorescence intensity (RFU), Mean, MIC [2] [RFU]	MIC (P. aeruginosa DSM1117) [µM]	MIC (S. aureus DSM2569) [µM]	further results
CO[C@@H]1[C@@H](O[C@@H]2O[C@H](C)[C@@H](O[C@H]3C[C@@](C)(O)[C@@H](OC(=O)CC(C)C)[C@H](C)O3)[C@H](N(C)C)[C@H]2O)[C@@H](CC=O)C[C@@H](C)[C@@H](O)/C=C/C=C/C[C@@H](C)OC(=O)C[C@H]1OC(C)=O [Josamycin]	128 (≈ 106 µg/mL)	40 (≈ 33.1 µg/mL)	80 (≈ 66.2 µg/mL)	80 (≈ 66.2 µg/mL)	34.3	8835.42	7817.11	5830.67	2645.69	1478.33	1710.25	> 160	2 (≈ 1.66 µg/mL)	average Δlog10(CFU/ml) (killing) ([1]; drug conc. 0.1): 0.030 log10(CFU/ml); average Δlog10(CFU/ml) (killing) ([1]; drug conc. 0.5): 0.110 log10(CFU/ml); average Δlog10(CFU/ml) (killing) ([1]; drug conc. 2.5): 0.195 log10(CFU/ml); average Δlog10(CFU/ml) (killing) ([1]; drug conc. 10): 0.084 log10(CFU/ml); MIC:IC50 ratio ([2]; S. flexneri MIC in TSB versus intracellular IC50): > 2
CCC(=O)O[C@@H]1CC(=O)O[C@H](C)C/C=C/C=C/[C@H](O)[C@H](C)C[C@H](CC=O)[C@H](O[C@@H]2O[C@H](C)[C@@H](O[C@H]3C[C@@](C)(O)[C@@H](OC(=O)CC)[C@H](C)O3)[C@H](N(C)C)[C@H]2O)[C@H]1OC [Midecamycin]	128 (≈ 104 µg/mL)	160 (≈ 130 µg/mL)	160 (≈ 130 µg/mL)	> 160	91	9401.53	9631.81	8761.75	6972.36	1708.61	3717.14	> 160	2 (≈ 1.63 µg/mL)	UPEC regrowth delay (non-growing UPEC CFT073): effectively delays UPEC regrowth; MIC (E. coli CFT073 (UPEC); pH 7.4, CA-MHB, read-out: MIC (μM) CA-MHB): >160 µM; MIC (E. coli CFT073 (UPEC); Escherichia coli, LPM pH 5.5, read-out: MIC): 160 µM (≈ 130 µg/mL)
